One assay has as its target MMP-9 (gelatinase-B) (Homo sapiens, UniProt P14780). Description: fluorescence-based MMP-9 inhibition assay. It is filed as biochemical. As to conditions: for inhibition at 1000 µM: read-out: percent inhibition of MMP-9.
A further assay concerns the target MMP-8 (Homo sapiens, UniProt P22894). Description: fluorescence-based MMP-8 inhibition assay. It is filed as biochemical. As to conditions: MMP-8, fluorescence based assay.

For orientation: IC50 means the concentration that inhibits the measured activity by half. As a reminder, the inhibition is how much of the control response was suppressed.

Molecules are shown by their SMILES. Like-named read-outs stand apart in the source and are kept apart here.

Chain of MMP-9 (gelatinase-B) (P14780 94-707, species assumed): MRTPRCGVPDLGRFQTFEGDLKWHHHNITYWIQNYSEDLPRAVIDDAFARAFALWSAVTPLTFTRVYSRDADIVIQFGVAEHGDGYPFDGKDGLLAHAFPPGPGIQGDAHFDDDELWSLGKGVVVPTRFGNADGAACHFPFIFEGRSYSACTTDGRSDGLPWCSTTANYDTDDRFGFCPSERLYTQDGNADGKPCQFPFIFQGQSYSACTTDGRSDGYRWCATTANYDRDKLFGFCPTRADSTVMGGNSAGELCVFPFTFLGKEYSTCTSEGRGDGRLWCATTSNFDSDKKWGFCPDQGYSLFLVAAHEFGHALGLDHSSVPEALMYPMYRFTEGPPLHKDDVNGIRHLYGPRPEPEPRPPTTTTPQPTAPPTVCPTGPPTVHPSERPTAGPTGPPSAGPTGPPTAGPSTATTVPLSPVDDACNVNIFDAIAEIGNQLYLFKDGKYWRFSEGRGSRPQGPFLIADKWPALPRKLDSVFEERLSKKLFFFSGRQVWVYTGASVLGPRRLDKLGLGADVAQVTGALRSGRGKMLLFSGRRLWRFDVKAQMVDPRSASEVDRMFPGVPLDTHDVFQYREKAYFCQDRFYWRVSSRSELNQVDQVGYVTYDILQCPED
Chain of MMP-8 (P22894 101-467, species assumed): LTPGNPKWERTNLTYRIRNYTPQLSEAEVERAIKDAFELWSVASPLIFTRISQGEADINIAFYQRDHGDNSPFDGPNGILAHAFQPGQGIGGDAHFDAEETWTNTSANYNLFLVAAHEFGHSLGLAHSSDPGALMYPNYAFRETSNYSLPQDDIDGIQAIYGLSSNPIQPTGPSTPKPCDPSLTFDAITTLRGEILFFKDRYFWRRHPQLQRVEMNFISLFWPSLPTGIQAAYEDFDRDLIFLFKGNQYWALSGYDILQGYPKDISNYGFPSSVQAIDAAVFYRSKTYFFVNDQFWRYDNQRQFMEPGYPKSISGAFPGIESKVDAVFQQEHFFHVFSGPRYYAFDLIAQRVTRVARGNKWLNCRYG

`Cc1occc(=O)c1O` [Compound 3, 3-hydroxy-2-methyl-4-pyrone]: at MMP-9 (gelatinase-B), the half-maximal inhibitory concentration (IC50) worked out at 4030 µM and the inhibition at 1000 µM was around 50%.

Regarding `Cc1occc(=S)c1O` [Compound 5, 3-hydroxy-2-methyl-4-pyrothione], on MMP-9 (gelatinase-B), it took 138 µM to reach half-maximal inhibition (IC50) and the inhibition at 1000 µM was around 50%.

As for `O=C(NCc1ccc(-c2ccccc2)cc1)c1cccc(=O)n1O` [Compound 7, 1,2-HOPO-2], the IC50 turned out to be 0.075 µM against MMP-8 and 2.7 µM on MMP-9 (gelatinase-B) (MMP-9, fluorescence based assay).

These data come from PMC2867072 (Chemical communications (Cambridge, England), 2010).
